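Cultured in 96-well plates, cells were exposed to test compound for 48 hours across five concentrations. The concentration for 50% growth inhibition is given as GI50.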 Calls of active or inactive are those of the source. Cut-off read from the data, not from the text of the source: active = GI50 up to about 1.1 µM and inactive = higher.
What was measured:
Assay in all cases: inhibition of tumour cell growth, NCI panel, 48 h
NCI/ADR-RES = tested on: NCI/ADR-RES
HCC 2998 = tested on: HCC 2998
EKVX = tested on: EKVX
SN12C = tested on: SN12C
IGROV-1 = tested on: IGROV-1
MOLT-4 = tested on: MOLT-4
SK-MEL-28 = tested on: SK-MEL-28
SF-295 = tested on: SF-295
SNB-75 = tested on: SNB-75
NCI-H460 = tested on: NCI-H460
SNB-19 = tested on: SNB-19
HCT-15 = tested on: HCT-15
786-0 = tested on: 786-0
ACHN = tested on: ACHN
A549 = tested on: A549
PC-3 = tested on: PC-3
COLO 205 = tested on: COLO 205
MDA-MB-435 = tested on: MDA-MB-435
BT-549 = tested on: BT-549
SW-620 = tested on: SW-620
SK-OV-3 = tested on: SK-OV-3
SK-MEL-5 = tested on: SK-MEL-5
OVCAR-5 = tested on: OVCAR-5
T47D = tested on: T47D
NCI-H226 = tested on: NCI-H226
RPMI-8226 = tested on: RPMI-8226
SF-268 = tested on: SF-268
LOX IMVI = tested on: LOX IMVI
CAKI-1 = tested on: CAKI-1
KM12 = tested on: KM12
HCT-116 = tested on: HCT-116
HL-60 = tested on: HL-60
OVCAR-4 = tested on: OVCAR-4
HT-29 = tested on: HT-29
MCF7 = tested on: MCF7
SF-539 = tested on: SF-539
Malme-3M = tested on: Malme-3M
DU-145 = tested on: DU-145
CCRF-CEM = tested on: CCRF-CEM
HOP-62 = tested on: HOP-62
OVCAR-3 = tested on: OVCAR-3
UACC-62 = tested on: UACC-62
OVCAR-8 = tested on: OVCAR-8
MDA-N = tested on: MDA-N
Hs-578T = tested on: Hs-578T
UO-31 = tested on: UO-31
HOP-92 = tested on: HOP-92
U-251 = tested on: U-251
K562 = tested on: K562
MDA-MB-231 = tested on: MDA-MB-231
TK-10 = tested on: TK-10
SK-MEL-2 = tested on: SK-MEL-2
NCI-H23 = tested on: NCI-H23
RXF 393 = tested on: RXF 393
UACC-257 = tested on: UACC-257
M14 = tested on: M14
A498 = tested on: A498

Compound: Cc1c(C#N)c(=N)oc2ccccc12
- GI50 (NCI/ADR-RES): > 100 µM (inactive)
- GI50 (HCC 2998): > 100 µM (inactive)
- GI50 (EKVX): 49.8 µM (inactive)
- GI50 (SN12C): > 100 µM (inactive)
- GI50 (IGROV-1): > 100 µM (inactive)
- GI50 (MOLT-4): > 100 µM (inactive)
- GI50 (SK-MEL-28): > 100 µM (inactive)
- GI50 (SF-295): > 100 µM (inactive)
- GI50 (SNB-75): 57.5 µM (inactive)
- GI50 (NCI-H460): > 100 µM (inactive)
- GI50 (SNB-19): > 100 µM (inactive)
- GI50 (HCT-15): 83.2 µM
- GI50 (786-0): > 100 µM (inactive)
- GI50 (ACHN): > 100 µM (inactive)
- GI50 (A549): > 100 µM (inactive)
- GI50 (PC-3): > 100 µM (inactive)
- GI50 (COLO 205): > 100 µM (inactive)
- GI50 (MDA-MB-435): > 100 µM (inactive)
- GI50 (BT-549): > 100 µM (inactive)
- GI50 (SW-620): > 100 µM (inactive)
- GI50 (SK-OV-3): > 100 µM (inactive)
- GI50 (SK-MEL-5): > 100 µM (inactive)
- GI50 (OVCAR-5): > 100 µM (inactive)
- GI50 (T47D): 75.7 µM (inactive)
- GI50 (NCI-H226): > 100 µM (inactive)
- GI50 (RPMI-8226): > 100 µM (inactive)
- GI50 (SF-268): > 100 µM (inactive)
- GI50 (LOX IMVI): > 100 µM (inactive)
- GI50 (CAKI-1): > 100 µM (inactive)
- GI50 (KM12): > 100 µM (inactive)
- GI50 (HCT-116): > 100 µM (inactive)
- GI50 (HL-60): > 100 µM (inactive)
- GI50 (OVCAR-4): > 100 µM (inactive)
- GI50 (HT-29): > 100 µM (inactive)
- GI50 (MCF7): > 100 µM (inactive)
- GI50 (SF-539): > 100 µM (inactive)
- GI50 (Malme-3M): > 100 µM (inactive)
- GI50 (DU-145): > 100 µM (inactive)
- GI50 (CCRF-CEM): > 10 µM (inactive)
- GI50 (HOP-62): 88.9 µM (inactive)
- GI50 (OVCAR-3): > 100 µM (inactive)
- GI50 (UACC-62): > 100 µM (inactive)
- GI50 (OVCAR-8): > 100 µM (inactive)
- GI50 (MDA-N): > 100 µM (inactive)
- GI50 (Hs-578T): > 100 µM (inactive)
- GI50 (UO-31): > 100 µM (inactive)
- GI50 (HOP-92): > 100 µM (inactive)
- GI50 (U-251): > 100 µM (inactive)
- GI50 (K562): > 100 µM (inactive)
- GI50 (MDA-MB-231): > 100 µM (inactive)
- GI50 (TK-10): > 100 µM (inactive)
- GI50 (SK-MEL-2): 84.1 µM (inactive)
- GI50 (NCI-H23): > 100 µM (inactive)
- GI50 (RXF 393): > 100 µM (inactive)
- GI50 (UACC-257): > 100 µM (inactive)
- GI50 (M14): > 100 µM (inactive)
- GI50 (A498): > 100 µM (inactive)

— ChEMBL document CHEMBL1201862, “PubChem BioAssay data set” (2004)
